# Legend:
# [1] = test system: primary human neutrophils; assay: IL-8-induced chemotaxis of primary human neutrophils (Boyden chamber); assay type: cell-based; conditions: 10 μM compound, 10 nM IL-8; result in words
# Method: Differentiated HL60 cells (200 k) were pretreated with 10 μM concentrations of the indicated compound, challenged with 250 nM fMLP, and assayed for chemotaxis in a Boyden chamber for 1 h at 37° C. […] Chemotaxis was quantified as above by subtracting out background cells (0-10 cells) in the absence of chemoattractant to obtain total transmigrated cells (−100 cells GM-CSF+vehicle) and represented as the percentage of GM-CSF-treated control cells. No statistically significant difference from control was seen by ANOVA. […] Primary human neutrophils were isolated from whole blood to ≧80% purity. […] Chemotaxis was quantified as above by subtracting out background cells to obtain total transmigrated cells and represented as the percentage of fMLP-treated control cells. […]
# Chemotaxis was assayed using a Boyden chamber (Neuro Probe, Gaithersburg, Md.) using 3-μm polyvinylpyrrolidone-free polycarbonate filters (Neuro Probe). […] Chemotactic HL60 cells were scored by counting three microscope fields and subtracting the number of cells from fMLP wells as background. […] For all the small molecules, effects of the compounds on chemokinesis was analyzed by measuring chemotaxis in the presence of 250 nM fMLP in both the upper and lower chambers of the Boyden Chamber and measuring changes in transwell migration. […]
# [2] = test system: GFP-PHAkt translocation (PI3Kγ activation) in HL60 cells; assay: fMLP-dependent GFP-PH-Akt translocation in differentiated HL60 cells; assay type: cell-based, human; conditions: 10 μM compound; result in words
# PLCβ3 = assay: Gβ1γ2-dependent activation of purified PLCβ3; assay type: biochemical; conditions: for effect on Gβ1γ2-dependent activation of PLCβ3: result in words
# Method: (§1) Purified PLCβ2 (0.25 ng) was assayed in the presence (▴) or absence (▪) of 100 nM purified Gβ1γ2. […] Assays contained 10 ng of purified p101/p110 PI3Kγ heterodimer with or without 100 nM purified Gβ1γ2. Left panel: (▴) 100 nM Gβ1γ2 or (▪) no βγ. […] M119 or M201 and 25 nM purified GRK2 were added simultaneously to 250 nM biotinylated Gβ1γ2 (bGβ1γ2) immobilized on streptavidin agarose. GRK2 was detected with antibody to GRK2. Data are representative (mean ±SEM, except D) repeated at least three times each. […] 30 nM bGβ1γ2 was incubated with either 30 nM PLCβ2 or PLCβ3 in the presence or absence of M119 or M201 for 16 h at 4° C. before precipitation with avidin agarose and detection with PLCβ2,or Gβ antibodies. […] Same as 4E with PLCβ3.
# The ability of NSC119910 analogs to selectively modulate activation PLC-β2 and -β3 was analyzed. In this assay, PLC-β2 and PLC-β3 were purified and PLC enzymatic activity was measured in the presence or absence of purified βy and in the presence or absence of analog.
# (§2) Nevertheless, M119 and M201 were tested in in vitro reconstitution assays of Gβγ-dependent activation of PLCβ2, PLCβ3 and PI3Kγ and binding to GRK2. […] These are only two of multiple diverse compounds identified, indicating potential for multiple modes of Gβγ-dependent target modulation by these small molecules.
# PI3Kγ = assay: Gβ1γ2-dependent activation of purified p101/p110 PI3Kγ; assay type: biochemical; conditions: for effect on Gβ1γ2-dependent activation of PI3Kγ: result in words
# Method: as §1, §2
# Gβγ-GRK2 interaction = molecular target: T1, Gβγ-GRK2 interaction (UniProt P54311+P63212); assay: GRK2 binding to biotinylated Gβ1γ2 on streptavidin agarose
# T1 construct: made in house; host or cells: bGβ1γ2: Sf9 insect cells
# T1 sequence (P54311 whole entry): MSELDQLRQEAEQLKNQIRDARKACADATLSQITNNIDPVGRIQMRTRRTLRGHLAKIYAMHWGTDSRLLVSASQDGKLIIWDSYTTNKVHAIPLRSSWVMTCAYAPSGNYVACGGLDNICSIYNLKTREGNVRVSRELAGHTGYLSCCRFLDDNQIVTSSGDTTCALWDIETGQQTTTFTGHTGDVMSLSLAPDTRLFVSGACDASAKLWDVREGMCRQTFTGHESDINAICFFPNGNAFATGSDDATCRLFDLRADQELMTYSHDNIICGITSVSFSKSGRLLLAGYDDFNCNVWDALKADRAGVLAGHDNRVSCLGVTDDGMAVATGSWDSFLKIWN
# T1 sequence (P63212 2-68 limits assumed): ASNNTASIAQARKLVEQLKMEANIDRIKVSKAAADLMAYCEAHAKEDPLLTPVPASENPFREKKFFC
effect on GRK2 binding to bGβ1γ2 (Gβγ-GRK2 interaction; result in words),Compound,effect on IL-8 regulated chemotaxis [1],effect on fMLP-dependent translocation of GFP-PHAkt to the membrane [2],"IC50 (PLCβ3; Table 19, effector IC50, read-out: PLCb3) [µM]",effect on Gβ1γ2-dependent activation of PLCβ3 (PLCβ3),"IC50 (PI3Kγ; Table 19, effector IC50, read-out: PI 3-Kg) [µM]",effect on Gβ1γ2-dependent activation of PI3Kγ (PI3Kγ),IC50 (Gβγ-GRK2 interaction) [µM]
,O=C(O)c1ccccc1-c1c2ccc(=O)c(O)c-2oc2c(O)c(O)ccc12 (racemic) [Gallein],blocked,inhibited,,,,,
,"O=C(O)C1CCCCC1c1c2ccc(=O)c(O)c-2oc2c(O)c(O)ccc12 (stereo not drawn) [Compound M119, cyclohexanecarboxylic acid, 2-(4,5,6-trihydroxy-3-oxo-3H-xanthen-9-yl)-(9cl)]",blocked,inhibited,3,attenuated,8,attenuated,~5
did not have effects,O=C(O)C1CCCCC1c1c2ccc(=O)cc-2oc2cc(O)ccc12 (stereo not drawn) [Compound M119B],,,,did not have effects,,did not have effects,

# Source: patent US8975259B2, “Compositions and methods for inhibiting G protein signaling” (University of Rochester, priority 2007, dated 2015)
